Experimental data as given in patent US20190002436A1, “RESPIRATORY SYNCYTIAL VIRUS INHIBITORS” (MEDIVIR AB, priority 2015, published 2019).

The molecules below were run on RSV (Long) (assay: RSV cytopathic effect (CPE)-based viral replication assay). Conditions: HEp-2 cells infected with RSV Long at MOI 0.015; 3 days at 37° C.; cell viability by CellTiter-Glo luminescence; read-out: EC50 (nm).
Type: cell-based, respiratory syncytial virus (RSV)
How it was run: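 HEp-2 cells, 2,500 per well in DMEM with 2% heat-inactivated FBS, treated with 10-point compound dilutions and infected with RSV Long at MOI 0.015. After 3 days at 37 °C, 5% CO2, viability read by CellTiter-Glo luminescence; EC50 derived from CPE data.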

Row | Compound | EC50
1 | CS(=O)(=O)N1CCC2(CC1)C(=O)N(Cc1ncc3ccccc3c1C1CNC(=O)C1)c1cnccc12 (stereo not shown) [Example 2041] | 5.8 nM

Same assay, conditions: human respiratory syncytial virus, HEp-2, 72 h, HEp-2 cells infected with RSV Long at MOI 0.015; 3 days at 37° C.; cell viability by CellTiter-Glo luminescence; read-out: EC50 (nm)

Row | Compound | EC50
2 | CN(C)C(=O)c1ccc(-c2c(CN3C(=O)C4(CCN(C(=O)C5(N)CC5)CC4)c4ccncc43)ncc3ccccc23)cn1 [Example 120, 5-(3-((1-(1-aminocyclopropanecarbonyl)-2′-oxospiro[piperidine-4,3′-pyrrolo[2,3-c]pyridin]-1′(2′H)-yl)methyl)isoquinolin-4-yl)-N,N-dimethylpicolinamide] | 4.7 nM
3 | O=C1N(Cc2ncc3ccccc3c2CCCCO)c2ccccc2C12CNC2 [Example 40, 1′-((4-(4-Hydroxybutyl)isoquinolin-3-yl)methyl)spiro[azetidine-3,3′-indolin]-2′-one] | 110 nM
4 | NC1(C(=O)N2CCC3(CC2)C(=O)N(Cc2ncc4ccccc4c2-c2cnco2)c2cnccc23)CC1 [Example 2043] | 40 nM
5 | NC1(NC(=O)N2CC3(C2)C(=O)N(Cc2ncc4ccccc4c2-c2cccnc2)c2ccccc23)CC1 [Example 155, N-(1-aminocyclopropyl)-2′-oxo-1′-((4-(pyridin-3-yl)isoquinolin-3-yl)methyl)spiro[azetidine-3,3′-indoline]-1-carboxamide] | 2 nM
6 | CC(C)(C)NC(=O)N1CC2(C1)C(=O)N(Cc1ncc3ccccc3c1CCCCO)c1ccccc12 [Example 56, N-(tert-butyl)-1′-((4-(4-hydroxybutyl)isoquinolin-3-yl)methyl)-2′-oxospiro[azetidine-3,3′-indoline]-1-carboxamide] | 1.3 nM
7 | CS(=O)(=O)Nc1ccc(-c2c(CN3C(=O)C4(CN(C(N)=O)C4)c4ccccc43)ncc3ccccc23)cc1 [Example 117, 1′-((4-(4-(methylsulfonamido)phenyl)isoquinolin-3-yl)methyl)-2′-oxospiro[azetidine-3,3′-indoline]-1-carboxamide] | 0.75 nM
8 | COC(=O)C1CC2(C1)C(=O)N(Cc1ncc3ccccc3c1-c1ccc(C3(N)CC3)nc1)c1cnccc12 (stereo not shown) [Example 2002] | 5.4 nM
9 | NCCC(=O)N1CCC2(CC1)C(=O)N(Cc1ncc3ccccc3c1-c1cccnc1)c1cnccc12 [Example 141, 1-(3-aminopropanoyl)-1′-((4-(pyridin-3-yl)isoquinolin-3-yl)methyl)spiro[piperidine-4,3′-pyrrolo[2,3-c]pyridin]-2′(1′H)-one] | 11 nM
10 | COC(=O)N1CC2(C1)C(=O)N(Cc1ncc3ccccc3c1-c1ccc(F)nc1)c1ccccc12 [Example 73] | 1.6 nM
11 | NC1(C(=O)N2CCC3(CC2)C(=O)N(Cc2ncc4ccccc4c2-c2cc[nH]c2)c2cnccc23)CC1 [Example 2031] | 120 nM
12 | O=C1N(Cc2ncc3ccccc3c2CCCCO)c2cnccc2C12CC2 [Example 49, 1′-((4-(4-hydroxybutyl)isoquinolin-3-yl)methyl)spiro[cyclopropane-1,3′-pyrrolo[2,3-c]pyridin]-2′(1′H)-one] | 18 nM
13 | CS(=O)(=O)N1CCC2(CC1)C(=O)N(Cc1ncc3ccccc3c1-c1ccc(C3(N)COC3)nc1)c1cnccc12 [Example 2038] | 11 nM
14 | CNC1(C(=O)N2CCC3(CC2)C(=O)N(Cc2ncc4ccccc4c2-c2ccc(C(=O)N(C)C)nc2)c2cnccc23)CC1 [Example 122, N,N-dimethyl-5-(3-((1-(1-(methylamino)cyclopropanecarbonyl)-2′-oxospiro[piperidine-4,3′-pyrrolo[2,3-c]pyridin]-1′(2′H)-yl)methyl)isoquinolin-4-yl)picolinamide] | 8.5 nM
15 | CS(=O)(=O)N1CCC2(CC1)C(=O)N(Cc1ncc3cc(F)ccc3c1-c1cccnc1)c1cnccc12 [Example 2034] | 2.6 nM
16 | CS(=O)(=O)N1CC2(C1)C(=O)N(Cc1ncc3ccccc3c1CCCCO)c1ccccc12 [Example 42, 1′-((4-(4-Hydroxybutyl)isoquinolin-3-yl)methyl)-1-(methylsulfonyl)spiro[azetidine-3,3′-indolin]-2′-one] | 4.6 nM
17 | CC1(n2c(=O)n(Cc3ncc4ccccc4c3-c3ccc(C4(N)CC4)nc3)c3cnccc32)CC1 [Example 2001] | 9.5 nM
18 | CS(=O)(=O)N1CCC2(CC1)C(=O)N(Cc1ncc3cc(Cl)ccc3c1-c1ccncc1)c1cnccc12 [Example 2009] | 0.35 nM
19 | COC(=O)N1CC2(C1)C(=O)N(Cc1ncc3ccccc3c1-c1cnccn1)c1ccccc12 [Example 103, Methyl 2′-oxo-1′-((4-(pyrazin-2-yl)isoquinolin-3-yl)methyl)spiro[azetidine-3,3′-indoline]-1-carboxylate] | 18 nM
20 | COC(=O)N1CCC(n2c(=O)n(Cc3ncc4cc(CN)ccc4c3CCCCO)c3cnccc32)CC1 [Example 24, Methyl 4-(3-((7-(aminomethyl)-4-(4-hydroxybutyl)isoquinolin-3-yl)methyl)-2-oxo-2,3-dihydro-1H-imidazo[4,5-c]pyridin-1-yl)piperidine-1-carboxylate] | 2.4 nM
21 | COC(=O)N1CC2(C1)C(=O)N(Cc1ncc3ccccc3c1-c1ccc(S(N)(=O)=O)cc1)c1ccccc12 [Example 99, Methyl 2′-oxo-1′-((4-(4-sulfamoylphenyl)isoquinolin-3-yl)methyl)spiro[azetidine-3,3′-indoline]-1-carboxylate] | 0.75 nM

Next, values leading:

Row | EC50 | Compound
22 | 0.4 nM | CC1(OC(=O)N2CC3(C2)C(=O)N(Cc2ncc4ccccc4c2-c2ccc(C#N)nc2)c2ccccc23)CC1 [Example 91b, 1-Methylcyclopropyl 1′-((4-(6-cyanopyridin-3-yl)isoquinolin-3-yl)methyl)-2′-oxospiro[azetidine-3,3′-indoline]-1-carboxylate]
23 | 42 nM | COCCN1CC2(C1)C(=O)N(Cc1ncc3ccccc3c1-c1ccc(F)nc1)c1ccccc12 [Example 85c, 1′-((4-(6-Fluoropyridin-3-yl)isoquinolin-3-yl)methyl)-1-(2-methoxyethyl)spiro[azetidine-3,3′-indolin]-2′-one]
24 | 17 nM | CN(C)C1(C(=O)N2CC3(C2)C(=O)N(Cc2ncc4ccccc4c2-c2ccc(C(N)=O)nc2)c2ccccc23)CC1 [Example 113b, 5-(3-((1-(1-(Dimethylamino)cyclopropanecarbonyl)-2′-oxospiro[azetidine-3,3′-indolin]-1′-yl)methyl)isoquinolin-4-yl)picolinamide]
25 | 4 nM | COC(=O)N1CC2(C1)C(=O)N(Cc1ncc3ccccc3c1-c1ccc(C(N)C(F)(F)F)nc1)c1ccccc12 (stereo not shown) [Example 157b, methyl 1′-((4-(6-(1-amino-2,2,2-trifluoroethyl)pyridin-3-yl)isoquinolin-3-yl)methyl)-2′-oxospiro[azetidine-3,3′-indoline]-1-carboxylate]
26 | 17 nM | COC(=O)c1ccc(-c2c(CN3C(=O)C4(CCN(C(=O)C5(N)CC5)CC4)c4ccncc43)ncc3ccccc23)cn1 [Example 50c, Methyl 5-(3-((1-(1-aminocyclopropanecarbonyl)-2′-oxospiro[piperidine-4,3′-pyrrolo[2,3-c]pyridin]-1′(2′H)-yl)methyl)isoquinolin-4-yl)picolinate]
27 | 5800 nM | N[C@@H]1CCN(c2ccc3c(CCCCO)c(Cn4c(=O)n(C5CC5)c5ccncc54)ncc3c2)C1 [Example 32c, (R)-3-((7-(3-aminopyrrolidin-1-yl)-4-(4-hydroxybutyl)isoquinolin-3-yl)methyl)-1-cyclopropyl-1H-imidazo[4,5-c]pyridin-2(3H)-one]
28 | 13 nM | O=c1n(Cc2ncc3ccccc3c2CCCCO)c2cnccc2n1C1CC1 [Example 1c, 1-cyclopropyl-3-((4-(4-hydroxybutyl)isoquinolin-3-yl)methyl)-1H-imidazo[4,5-c]pyridin-2(3H)-one]
29 | 41 nM | COC(=O)N1CCC(n2c(=O)n(Cc3ncc4cc(C#N)ccc4c3CCCCO)c3cnccc32)CC1 [Example 23b, methyl 4-(3-((7-cyano-4-(4-hydroxybutyl)isoquinolin-3-yl)methyl)-2-oxo-2,3-dihydro-1H-imidazo[4,5-c]pyridin-1-yl)piperidine-1-carboxylate]
30 | 1000 nM | Cc1noc(C)c1-c1c(CN2C(=O)C3(CCN(C(=O)C4(N)CC4)CC3)c3ccncc32)ncc2ccccc12 [Example 130c, 1-(1-Aminocyclopropanecarbonyl)-1′-((4-(3,5-dimethylisoxazol-4-yl)isoquinolin-3-yl)methyl)spiro[piperidine-4,3′-pyrrolo[2,3-c]pyridin]-2′(1′H)-one]
31 | 2.5 nM | CS(=O)(=O)N(c1ccc(-c2c(CN3C(=O)C4(CCN(C(=O)C5(C(F)(F)F)CC5)CC4)c4ccncc43)ncc3ccccc23)cn1)S(C)(=O)=O [Example 166d, N-(methylsulfonyl)-N-(5-(3-((2′-oxo-1-(1-(trifluoromethyl)cyclopropanecarbonyl)spiro[piperidine-4,3′-pyrrolo[2,3-c]pyridin]-1′(2′H)-yl)methyl)isoquinolin-4-yl)pyridin-2-yl)methanesulfonamide]
32 | 1.8 nM | COC(=O)N1CCC2(CC1)C(=O)N(Cc1ncc3cc(Cl)ccc3c1-c1ccncc1)c1cnccc12 [Example 165b, Methyl 1′-((7-chloro-4-(pyridin-4-yl)isoquinolin-3-yl)methyl)-2′-oxo-1′,2′-dihydrospiro[piperidine-4,3′-pyrrolo[2,3-c]pyridine]-1-carboxylate]
33 | 4.3 nM | NC1(C(=O)N2CCC3(CC2)C(=O)N(Cc2ncc4ccccc4c2-c2ccc(C(=O)O)nc2)c2cnccc23)CC1 [Example 50b, 5-(3-((1-(1-aminocyclopropanecarbonyl)-2′-oxospiro[piperidine-4,3′-pyrrolo[2,3-c]pyridin]-1′(2′H)-yl)methyl)isoquinolin-4-yl)picolinic acid]

Same assay, conditions: human respiratory syncytial virus, HEp-2, 72 h, read-out: EC50 (nm)

Row | Compound | EC50
34 | COC(=O)N1CC2(C1)C(=O)N(Cc1ncc3ccccc3c1-c1ccc(C#N)cn1)c1ccccc12 [Example 101, Methyl 1′-((4-(5-cyanopyridin-2-yl)isoquinolin-3-yl)methy)-2′-oxospiro[azetidine-3,3′-indoline]-1-carboxylate] | 11 nM
